Test results taken from patent publication US6713455B2, “6-O-carbamate-11,12-lacto-ketolide antimicrobials” (Ortho-McNeil Pharmaceutical, Inc., priority 2001, dated 2004).
Values after ≈ are worked out from the molar mass of the structure shown.

What was measured:
Experiment in all cases: MIC, microdilution broth method (NCCLS)
Type in all cases: cell-based
E. faecalis ATCC29212 = conditions: 35° C., 16-20 hours; for MIC: Enterococcus faecalis
Procedure: (§1) Minimal inhibitory concentration (MIC) has been an indicator of in vitro antibacterial activity widely used in the art. The in vitro antimicrobial activity of the compounds was determined by the microdilution broth method following the test method from the National Committee for Clinical Laboratory Standards (NCCLS). This method is described in the NCCLS Document M7-A4, Vol.17, No.2, “Methods for Dilution Antimicrobial Susceptibility Test for Bacteria that Grow Aerobically—Fourth Edition”, which is incorporated herein by reference.
(§2) In this method two-fold serial dilutions of drug in cation adjusted Mueller-Hinton broth are added to wells in microdilution trays. The test organisms are prepared by adjusting the turbidity of actively growing broth cultures so that the final concentration of test organism after it is added to the wells is approximately 5×10^4 CFU/well.
(§3) Following inoculation of the microdilution trays, the trays are incubated at 35° C. for 16-20 hours and then read. […] The amount of growth in the wells containing the test compound is compared with the amount of growth in the growth-control wells (no test compound) used in each tray. As set forth in Table 1, compounds of the present invention were tested against a variety of Gram positive and Gram negative pathogenic bacteria resulting in a range of activities depending on the organism tested.

S. pneumoniae ATCC49619 = conditions: 35° C., 16-20 hours; for MIC: Streptococcus pneumoniae
Procedure: as §1, §2, §3

H. influenzae ATCC49247 = conditions: 35° C., 16-20 hours; for MIC: Haemophilus influenzae
Procedure: as §1, §2, §3

S. aureus ATCC29213 = conditions: 35° C., 16-20 hours; for MIC: Staphylococcus aureus
Procedure: as §1, §2, §3

E. coli OC2605 = conditions: 35° C., 16-20 hours; for MIC: Escherichia coli
Procedure: as §1, §2, §3

Row | MIC (μg/mL) C (E. faecalis ATCC29212) [µg/mL] | MIC (μg/mL) D (S. pneumoniae ATCC49619) [µg/mL] | MIC (μg/mL) E (H. influenzae ATCC49247) [µg/mL] | MIC (μg/mL) B (S. aureus ATCC29213) [µg/mL] | MIC (μg/mL) A (E. coli OC2605) [µg/mL] | MIC (E. faecalis ATCC29212) [µg/mL] | MIC (S. pneumoniae ATCC49619) [µg/mL] | MIC (H. influenzae ATCC49247) [µg/mL] | MIC (S. aureus ATCC29213) [µg/mL] | MIC (E. coli OC2605) [µg/mL] | SMILES
1 | 0.12 (≈ 0.148 µM) | 0.06 (≈ 0.0742 µM) | 16 (≈ 19.8 µM) | 1 (≈ 1.24 µM) | >16 |  |  |  |  |  | CCC1OC(=O)C(C)C(=O)C(C)C(OC2OC(C)CC(N(C)C)C2O)C(C)(OC(=O)NCc2ccc(-c3cncnc3)cc2)CC(C)C(=O)C(C)C2CC(=O)OC12C (centres unmarked) [Compound 2]
2 |  |  |  |  |  | 0.12 (≈ 0.144 µM) | 0.06 (≈ 0.0719 µM) | 8 (≈ 9.58 µM) | 0.25 (≈ 0.299 µM) | > 16 | CC[C@H]1OC(=O)[C@H](C)C(=O)[C@H](C)[C@@H](OC2O[C@H](C)C[C@H](N(C)C)[C@H]2O)[C@](C)(OC(=O)NC/C=C/c2ccc(-c3ncccn3)cc2)C[C@@H](C)C(=O)C(C)C2CC(=O)O[C@@]21C (some centres unmarked) [Compound 7]
3 | 0.25 (≈ 0.299 µM) | 0.06 (≈ 0.0719 µM) | 8 (≈ 9.58 µM) | 0.5 (≈ 0.599 µM) | >16 |  |  |  |  |  | CCC1OC(=O)C(C)C(=O)C(C)C(OC2OC(C)CC(N(C)C)C2O)C(C)(OC(=O)NCC=Cc2ccc(-c3cncnc3)cc2)CC(C)C(=O)C(C)C2CC(=O)OC12C (centres unmarked) [Compound 9]
4 | 0.12 (≈ 0.144 µM) | 0.06 (≈ 0.0719 µM) | 4 (≈ 4.79 µM) | 0.5 (≈ 0.599 µM) | >16 |  |  |  |  |  | CCC1OC(=O)C(C)C(=O)C(C)C(OC2OC(C)CC(N(C)C)C2O)C(C)(OC(=O)NCC=Cc2cncc(-c3ccccn3)c2)CC(C)C(=O)C(C)C2CC(=O)OC12C (centres unmarked) [Compound 11]
5 | 0.25 (≈ 0.3 µM) | 0.12 (≈ 0.144 µM) | 8 (≈ 9.59 µM) | 1 (≈ 1.2 µM) | >16 |  |  |  |  |  | CCC1OC(=O)C(C)C(=O)C(C)C(OC2OC(C)CC(N(C)C)C2O)C(C)(OC(=O)NCC=Cc2ccc(-c3ccccn3)cc2)CC(C)C(=O)C(C)C2CC(=O)OC12C (centres unmarked) [Compound 15]
6 | 1 (≈ 1.37 µM) | 0.25 (≈ 0.342 µM) | >16 | 16 (≈ 21.9 µM) | >16 |  |  |  |  |  | CCC1OC(=O)C(C)C(=O)C(C)C(OC2OC(C)CC(N(C)C)C2O)C(C)(OC(=O)NCc2ccccc2)CC(C)C(=O)C(C)C2CC(=O)OC12C (centres unmarked) [Compound 19]
7 |  |  |  |  |  | 0.12 (≈ 0.149 µM) |  | 2 (≈ 2.48 µM) | 0.25 (≈ 0.309 µM) | 16 (≈ 19.8 µM) | CC[C@H]1OC(=O)[C@H](C)C(=O)[C@H](C)[C@@H](OC2O[C@H](C)C[C@H](N(C)C)[C@H]2O)[C@](C)(OC(=O)NC/C=C/c2cncc3ccccc23)C[C@@H](C)C(=O)C(C)C2CC(=O)O[C@@]21C (some centres unmarked) [Compound 30]

The next lines start with the compound.

Row | SMILES | MIC (μg/mL) C (E. faecalis ATCC29212) [µg/mL] | MIC (μg/mL) D (S. pneumoniae ATCC49619) [µg/mL] | MIC (μg/mL) E (H. influenzae ATCC49247) [µg/mL] | MIC (μg/mL) B (S. aureus ATCC29213) [µg/mL] | MIC (μg/mL) A (E. coli OC2605) [µg/mL] | MIC (E. faecalis ATCC29212) [µg/mL] | MIC (S. pneumoniae ATCC49619) [µg/mL] | MIC (H. influenzae ATCC49247) [µg/mL] | MIC (S. aureus ATCC29213) [µg/mL] | MIC (E. coli OC2605) [µg/mL]
8 | CCC1OC(=O)C(C)C(=O)C(C)C(OC2OC(C)CC(N(C)C)C2O)C(C)(OC(N)=O)CC(C)C(=O)C(C)C2CC(=O)OC12C (centres unmarked) [Compound 1] | 2 (≈ 3.12 µM) | 0.5 (≈ 0.78 µM) | >16 | 8 (≈ 12.5 µM) | >16 |  |  |  |  | 
9 | CCC1OC(=O)C(C)C(=O)C(C)C(OC2OC(C)CC(N(C)C)C2O)C(C)(OC(=O)NCc2ccc3ncccc3c2)CC(C)C(=O)C(C)C2CC(=O)OC12C (centres unmarked) [Compound 3] | 0.25 (≈ 0.32 µM) | 0.06 (≈ 0.0767 µM) | 8 (≈ 10.2 µM) | 1 (≈ 1.28 µM) | >16 |  |  |  |  | 
10 | CCC1OC(=O)C(C)C(=O)C(C)C(OC2OC(C)CC(N(C)C)C2O)C(C)(OC(=O)NCc2ccc(C(=O)O)cc2)CC(C)C(=O)C(C)C2CC(=O)OC12C (centres unmarked) [Compound 4] | 8 (≈ 10.3 µM) | 1 (≈ 1.29 µM) | >16 | >16 | >16 |  |  |  |  | 
11 | CCC1OC(=O)C(C)C(=O)C(C)C(OC2OC(C)CC(N(C)C)C2O)C(C)(OC(=O)NCC=Cc2cnc3ccccc3c2)CC(C)C(=O)C(C)C2CC(=O)OC12C (centres unmarked) [Compound 5] | 0.06 (≈ 0.0743 µM) | 0.03 (≈ 0.0371 µM) | 16 (≈ 19.8 µM) | 0.5 (≈ 0.619 µM) | 16 (≈ 19.8 µM) |  |  |  |  | 
12 | CCC1OC(=O)C(C)C(=O)C(C)C(OC2OC(C)CC(N(C)C)C2O)C(C)(OC(=O)NCC=Cc2ccc(-c3ccccn3)cc2)CC(C)C(=O)C(C)C2C(OC)C(=O)OC12C (centres unmarked) [Compound 6] | 1 (≈ 1.16 µM) | 0.25 (≈ 0.289 µM) | 8 (≈ 9.26 µM) | 1 (≈ 1.16 µM) | >16 |  |  |  |  | 
13 | CCC1OC(=O)C(C)C(=O)C(C)C(OC2OC(C)CC(N(C)C)C2O)C(C)(OC(=O)NCC=Cc2ccc3cccnc3c2)CC(C)C(=O)C(C)C2C(OC)C(=O)OC12C (centres unmarked) [Compound 10] | 0.5 (≈ 0.597 µM) | 0.12 (≈ 0.143 µM) | 8 (≈ 9.55 µM) | 1 (≈ 1.19 µM) | >16 |  |  |  |  | 
14 | CCC1OC(=O)C(C)C(=O)C(C)C(OC2OC(C)CC(N(C)C)C2O)C(C)(OC(=O)N(CC=Cc2cncc(-c3ccccn3)c2)CC=Cc2cncc(-c3ccccn3)c2)CC(C)C(=O)C(C)C2CC(=O)OC12C (centres unmarked) [Compound 12] | 0.5 (≈ 0.486 µM) | 0.12 (≈ 0.117 µM) | 16 (≈ 15.5 µM) | 2 (≈ 1.94 µM) | >16 |  |  |  |  | 
15 | CCC1OC(=O)C(C)C(=O)C(C)C(OC2OC(C)CC(N(C)C)C2O)C(C)(OC(=O)NCC=Cc2cccc(-c3ccccn3)c2)CC(C)C(=O)C(C)C2CC(=O)OC12C (centres unmarked) [Compound 13] | 0.25 (≈ 0.3 µM) | 0.06 (≈ 0.0719 µM) | 4 (≈ 4.8 µM) | 1 (≈ 1.2 µM) | >16 |  |  |  |  | 
16 | CCC1OC(=O)C(C)C(=O)C(C)C(OC2OC(C)CC(N(C)C)C2O)C(C)(OC(=O)NCC=Cc2cccc(-c3cccnc3)c2)CC(C)C(=O)C(C)C2CC(=O)OC12C (centres unmarked) [Compound 14] | 0.5 (≈ 0.6 µM) | 0.12 (≈ 0.144 µM) | 8 (≈ 9.59 µM) | 2 (≈ 2.4 µM) | >16 |  |  |  |  | 
17 | CC[C@H]1OC(=O)[C@H](C)C(=O)[C@H](C)[C@@H](O[C@@H]2O[C@H](C)C[C@H](N(C)C)[C@H]2O)[C@](C)(OC(=O)NC/C=C/c2ccc(-n3cnnc3)cc2)C[C@@H](C)C(=O)C(C)[C@H]2CC(=O)O[C@@]21C (some centres unmarked) [Compound 16] | 0.25 (≈ 0.303 µM) | 0.06 (≈ 0.0728 µM) | 4 (≈ 4.85 µM) | 0.5 (≈ 0.607 µM) | 16 (≈ 19.4 µM) |  |  |  |  | 
18 | CC[C@H]1OC(=O)[C@H](C)C(=O)[C@H](C)[C@@H](OC2O[C@H](C)C[C@H](N(C)C)[C@H]2O)[C@](C)(OC(=O)NC/C=C/c2cn(-c3cnccn3)cn2)C[C@@H](C)C(=O)C(C)C2CC(=O)O[C@@]21C (some centres unmarked) [Compound 17] |  |  |  |  |  | 0.12 (≈ 0.145 µM) | 0.06 (≈ 0.0727 µM) | 4 (≈ 4.85 µM) | 0.5 (≈ 0.606 µM) | > 16
19 | CCC1OC(=O)C(C)C(=O)C(C)C(OC2OC(C)CC(N(C)C)C2O)C(C)(OC(=O)NCC#Cc2cccnc2)CC(C)C(=O)C(C)C2CC(=O)OC12C (centres unmarked) [Compound 18] | 0.5 (≈ 0.661 µM) | 0.12 (≈ 0.159 µM) | 8 (≈ 10.6 µM) | 2 (≈ 2.65 µM) | >16 |  |  |  |  | 
20 | CCC1OC(=O)C(C)C(=O)C(C)C(OC2OC(C)CC(N(C)C)C2O)C(C)(OC(=O)NCc2ccc(Br)cc2)CC(C)C(=O)C(C)C2CC(=O)OC12C (centres unmarked) [Compound 20] | 0.5 (≈ 0.617 µM) | 0.12 (≈ 0.148 µM) | 16 (≈ 19.8 µM) | 2 (≈ 2.47 µM) | >16 |  |  |  |  | 
21 | CCC1OC(=O)C(C)C(=O)C(C)C(OC2OC(C)CC(N(C)C)C2O)C(C)(OC(=O)NCc2ccc(C=Cc3ccccc3)cc2)CC(C)C(=O)C(C)C2CC(=O)OC12C (centres unmarked) [Compound 21] | 1 (≈ 1.2 µM) | 0.25 (≈ 0.3 µM) | 8 (≈ 9.6 µM) | 2 (≈ 2.4 µM) | >16 |  |  |  |  | 
